pKa data for 14 compounds are collected here from ChEMBL document CHEMBL3399949, “Fingerprint-based consensus virtual screening towards structurally new 5-HT(6)R ligands” (Bioorg Med Chem Lett, 2015).

Each structure is given as a SMILES string.

The pKa is the negative logarithm of the acid dissociation constant. A higher pKa goes with a weaker acid or stronger base.

The nature of the data set: Dissociation constant, pKa of the compound. In kind it is physicochemical.
For the compound `O=S(=O)(Nc1cc(Sc2cccc3cccnc23)c(O)c2ccccc12)c1ccc(F)cc1`, the pKa amounted to 3.48.

In turn, `O=S(=O)(Nc1cc(Sc2cccc3cccnc23)c(O)c2ccccc12)c1ccccc1` yielded a pKa of 3.48.

In turn, `O=S(=O)(Nc1ccn(Cc2cccc3ccccc23)n1)c1ccc(Br)s1` registered a pKa of 1.93.

On to `O=S(=O)(Nc1cc2c(c3ccccc13)OC1(N3CCOCC3)CCCCC21)c1ccccc1` (centres undefined), for which the pKa was found to be 5.56.

Compound `Nc1c(S(=O)(=O)c2ccccc2)sc2nc(-c3ccccc3)cc(-c3ccccc3)c12` returned a pKa of -0.69.

In turn, `Brc1ccc2c(c1)c1c3n2CCN(Cc2ccccc2)C3CCC1` (centres undefined) returned a pKa of 6.95.

`Cc1ccc(S(=O)(=O)N/N=C2\CCCc3c2[nH]c2ccc(Cl)cc32)cc1` had a pKa of -0.33.

Turning to `O=S(=O)(Nc1ccccc1-c1nccc2ccccc12)c1ccc(Cl)cc1`, the pKa was determined as 5.3.

On to `COc1cccc(-n2cc(C(=O)N(C)c3cccc(Cl)c3)c3ccccc3c2=O)c1`, for which the pKa is -1.37.

With `Cc1ccc(Nc2c(S(=O)(=O)c3ccccc3)cnc3ccc(Cl)cc23)cc1`, the pKa worked out at 2.34.

In turn, `NC(=O)C1CCN(c2c(S(=O)(=O)c3ccccc3)cnc3ccc(Cl)cc23)CC1` returned a pKa of 3.05.

On to `Cc1ccc(S(=O)(=O)c2cnc3ccc(F)cc3c2SCc2ccc(Cl)cc2)cc1`, for which the pKa was -0.25.

On to `COCCn1c(C)c(C)c(S(=O)(=O)c2ccc(Cl)cc2)c1N`, for which the pKa was -0.59.

Regarding `Cc1ccc(Cl)cc1N(C)C(=O)c1cn(-c2ccc(F)cc2F)c(=O)c2ccccc12`, the pKa was -1.07.
